The source of these data is patent US7945392B2, “Methods and systems for drug screening and computational modeling based on biologically realistic neurons” (McLean Hospital Corporation, priority 2005, dated 2011).

For assay [1] the following is noted: highly selective antagonist at the D4 receptor; cited from earlier work.
The target of the next assay is D1 receptor (Homo sapiens, UniProt P21728). Kind of assay: Fraction of receptors occupied, calculated from drug concentration and Ki. The conditions noted are these: at a therapeutic olanzapine level. The text has this: In particular, affinities of many drugs for receptors are well known. For example, Goodman and Gilmans “The Pharmacological Basis of Therapeutics,” Tenth Edition.
Sequence of D1 receptor (P21728 whole entry): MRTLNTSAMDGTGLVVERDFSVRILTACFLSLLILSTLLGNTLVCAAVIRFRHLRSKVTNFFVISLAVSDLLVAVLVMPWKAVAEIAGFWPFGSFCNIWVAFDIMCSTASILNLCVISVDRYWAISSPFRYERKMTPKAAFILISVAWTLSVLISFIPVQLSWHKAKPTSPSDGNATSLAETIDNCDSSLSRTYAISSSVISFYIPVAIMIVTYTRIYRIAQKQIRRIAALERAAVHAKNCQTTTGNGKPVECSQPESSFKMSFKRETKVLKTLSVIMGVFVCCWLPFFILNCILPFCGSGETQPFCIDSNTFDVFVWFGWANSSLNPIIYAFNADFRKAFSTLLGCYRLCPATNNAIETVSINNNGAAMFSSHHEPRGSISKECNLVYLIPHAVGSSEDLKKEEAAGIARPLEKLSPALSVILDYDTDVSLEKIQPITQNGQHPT

In the case of `Clc1ccc(N2CCN(Cc3c[nH]c4ncccc34)CC2)cc1` [L-745870], the antipsychotic effectiveness result in assay [1] is given as “ineffective”. In the case of `Cc1cc2c(s1)Nc1ccccc1N=C2N1CCN(C)CC1` [olanzapine], on D1 receptor, the “D1 receptors blocked (antagonized)” value is “approximately 47%”.
